According to patent US10577362B2, “Substituted 2, 4-diamino-quinoline derivatives for use in the treatment of proliferative diseases” (GENOSCIENCE PHARMA, priority 2016, dated 2020):
Structures can show the parent of a compound that is named as a salt.

Tests used:
Format in all cases: cell-based, human
[1] = system: MOLM-14 (acute myeloid leukemia) cell line; assay: CellTiter-Glo luminescent cell viability assay, MOLM-14; details: Homo sapiens; for EC50: MOLM-14 cell line, 72 h incubation, CellTiter-Glo, read-out: EC50, growth inhibition of MOLM-14; for viability at 4 µM: MOLM-14, compound at 4 μM; for viability at 4 µM / viability at 10 µM: 72 h; for viability at 10 µM: MOLM-14, compound at 10 μM
Experimental: (§1) All cell lines were maintained in medium containing 1% penicillin-streptomycin (Dutscher, P06-07100) and 10% Fetal Bovine Serum (Hyclone Dutscher, RZK35922) cultured at 37° C. with 5% CO2. HepG2 (hepatocellular carcinoma), cell line was cultured in Dulbecco's modified Eagle's medium low glucose (Gibco, 21885025), Huh7 (hepatocellular carcinoma), HCT-116 (colorectal carcinoma), PANC-1 (prancreatic carcinoma) and A375 (malignant melanoma) cell lines were cultured in Dulbecco's modified Eagle's medium (Dutscher, L0103). MOLM-14 (acute myeloid leukemia) cell line was maintained in MEM alpha medium (Gibco, 22561-021). 786-0 (renal adenocarcinoma) cell lines were maintained in RPMI 1640 medium (Dutscher, L0498).
(§2) Cell viability was measured using the CellTiter-Glo® luminescent cell viability assay as described by the manufacturer (Promega, Ref G7571) using an Infinite F200Pro luminometer (Tecan). Briefly, for adherent cells, cells were plated onto 96-well plates (white with clear bottom) in 90 μL of media per well and were allowed to grow overnight before the assay. For cells growing in suspension, cells were plated onto 96-well plates 1 h before the assay.
(§3) Compounds were resuspended in H2O or DMSO and added at different concentrations to each well, and cell cultures were incubated for 72 h. Each diluent (H2O or DMSO) were used as a control, and all compounds were tested in a constant percentage of H2O or DMSO. On the day of the reading, plates are equilibrated 30 min at room temperature before the addition of 100 μL of CellTiter-Glo® and luminescence was measured using an Infinite F200Pro (Tecan). % cell viability were expressed as a percentage of the signal obtained for cell cultures treated with diluent. EC50 values were determined as the dose of compound required to reduce luminescent values to 50% of the signal obtained for cell cultures treated with diluent. The experimental data were analyzed using a computer program, Graphpad Prism v5 (GraphPad Software, Inc. La Jolla, Calif.). All points were at least done in duplicate.

[2] = system: A375 (malignant melanoma) cell line; assay: CellTiter-Glo luminescent cell viability assay, A375; details: Homo sapiens, A-375; for EC50: A375 cell line, 72 h incubation, CellTiter-Glo, read-out: EC50, growth inhibition of A375; for viability at 4 µM: A375, compound at 4 μM; for viability at 4 µM / viability at 10 µM: 72 h; for viability at 10 µM: A375, compound at 10 μM
Experimental: as §1, §2, §3

[3] = system: HCT-116 (colorectal carcinoma) cell line; assay: CellTiter-Glo luminescent cell viability assay, HCT-116; details: Homo sapiens; for EC50: HCT-116 cell line, 72 h incubation, CellTiter-Glo, read-out: EC50, growth inhibition of HCT-116; for viability at 4 µM: HCT-116, compound at 4 μM; for viability at 4 µM / viability at 10 µM: 72 h; for viability at 10 µM: HCT-116, compound at 10 μM
Experimental: as §1, §2, §3

[4] = system: Huh7 (hepatocellular carcinoma) cell line; assay: CellTiter-Glo luminescent cell viability assay, Huh7; details: Homo sapiens, Huh-7; for EC50: Huh7 cell line, 72 h incubation, CellTiter-Glo, read-out: EC50, growth inhibition of Huh7; for viability at 4 µM: Huh7, compound at 4 μM; for viability at 4 µM / viability at 10 µM: 72 h; for viability at 10 µM: Huh7, compound at 10 μM
Experimental: as §1, §2, §3

[5] = system: 786-O (renal adenocarcinoma) cell line; assay: CellTiter-Glo luminescent cell viability assay, 786-O; details: Homo sapiens, 786-0; for EC50: 786-O cell line, 72 h incubation, CellTiter-Glo, read-out: EC50, growth inhibition of 786-O; for viability at 4 µM / viability at 10 µM: 786-O, 72 h; for viability at 4 µM: compound at 4 μM; for viability at 10 µM: compound at 10 μM
Experimental: as §1, §2, §3

[6] = system: HepG2 (hepatocellular carcinoma) cell line; assay: CellTiter-Glo luminescent cell viability assay, HepG2; details: Homo sapiens; for EC50: HepG2 cell line, 72 h incubation, CellTiter-Glo, read-out: EC50, growth inhibition of HepG2; for viability at 4 µM / viability at 10 µM: HepG2, HepG, 72 h; for viability at 4 µM: compound at 4 μM; for viability at 10 µM: compound at 10 μM
Experimental: as §1, §2, §3

EC50 [1] | EC50 [2] | EC50 [3] | EC50 [4] | EC50 [5] | EC50 [6] | SMILES | viability at 4 µM [1] | viability at 10 µM [1] | viability at 4 µM [2] | viability at 10 µM [2] | viability at 4 µM [3] | viability at 10 µM [3] | viability at 4 µM [4] | viability at 10 µM [4] | viability at 4 µM [5] | viability at 10 µM [5] | viability at 4 µM [6] | viability at 10 µM [6]
0.5 to 5 µM | 0.5 to 5 µM | 0.5 to 5 µM | 0.5 to 5 µM | 5 to 10 µM | 0.5 to 5 µM | O[C@H]1CCN(c2cc(NCc3ccc(Cl)cc3)nc3ccccc23)C1 [Compound 3060, (3S) 2-(4-chlorobenzylamino)-4-(3-hydroxypyrrolidin-1-yl)-quinoline hydrochloride] | – | – | – | – | – | – | – | – | – | – | – | –
5 to 10 µM | 5 to 10 µM | 0.5 to 5 µM | 5 to 10 µM | 5 to 10 µM | 5 to 10 µM | Cc1ccnc(Nc2ccc(Nc3nc4ccccc4c(N4CCC(NC(C)(C)C)CC4)c3C#N)cc2C)n1 [Compound 500CN, 2-[4-(4-methyl-2-pyrimidinamino)-3-methyl-phenylamino]-3-cyano-4-(4-tert-butylaminopiperidin-1-yl)-quinoline] | – | – | – | – | – | – | – | – | – | – | – | –
0.5 to 5 µM | 0.5 to 5 µM | 0.5 to 5 µM | 0.5 to 5 µM | 0.5 to 5 µM | 0.5 to 5 µM | Clc1ccc(CNc2cc(N3CC[C@H](Oc4ccccn4)C3)c3ccccc3n2)cc1 [Compound 3098, (3S) 2-(4-chlorobenzylamino)-4-[3-(pyridin-2-yloxy)pyrrolidin-1-yl]quinoline hydrochloride] | – | – | – | – | – | – | – | – | – | – | – | –
5 to 10 µM | 0.5 to 5 µM | 0.5 to 5 µM | 5 to 10 µM | 0.5 to 5 µM | 0.5 to 5 µM | Cc1c(NCc2ccc(Cl)cc2)nc2ccccc2c1N1CCC(NC(C)(C)C)CC1 [Compound 350, 2-(4-chlorobenzylamino)-3-methyl-4-[4-(tert-butylamino)piperidin-1-yl]quinoline] | – | – | – | – | – | – | – | – | – | – | – | –
– | – | – | – | – | – | CC(C)(C)NC1CCN(c2c(C#N)c(Nc3ccc(OC(F)(F)F)cc3)nc3ccccc23)CC1 [Compound 3266CN, 2-[4-(trifluoromethyloxy)phenylamino]-3-cyano-4-[4-(tert-butylamino)piperidin-1-yl]quinoline] | 91.4% | 50.3% | 48.1% | 21.1% | 17.7% | 4.7% | 78% | 49.1% | 28.1% | 3.8% | 60.6% | 24.9%
5 to 10 µM | 0.5 to 5 µM | 0.5 to 5 µM | 5 to 10 µM | 5 to 10 µM | 0.5 to 5 µM | CN(Cc1ccc(Cl)cc1)c1cc(N2CCC(NC(C)(C)C)CC2)c2ccccc2n1 [Compound 212, 2-(N-4-chlorobenzyl-N-methylamino)-4-[4-(tert-butylamino)-piperidin-1-yl]-quinoline, Hydrochloride Salt] | – | – | – | – | – | – | – | – | – | – | – | –
– | – | – | – | – | – | Cc1c(Nc2cccc(Nc3nccc(C(F)(F)F)n3)c2)nc2ccccc2c1N1CCC(NC(C)(C)C)CC1 [Compound 540Me, 2-[3-(4-trifluoromethylpyrimidin-2-ylamino)phenylamino]-3-methyl-4-(4-tert-butylaminopiperidin-1-yl)quinoline] | 63.1% | 0.3% | 1.6% | 0.1% | 0.4% | 0.1% | 63.9% | 0.2% | 2.6% | 0.1% | 38.3% | 0.1%
– | – | – | – | – | – | Cc1ccnc(Nc2ccc(Nc3nc4ccccc4c(N4CCC(NC(C)(C)C)CC4)c3C)cc2)n1 [Compound 532Me, 2-[4-(4-methylpyrimidin-2-ylamino)phenylamino]-3-methyl-4-(4-tert-butylaminopiperidin-1-yl)quinoline] | 65.5% | 0.4% | 23.3% | 0.3% | 16% | 0.3% | 55.9% | 0.5% | 0.3% | 0.3% | 12.3% | 0.3%
– | – | – | – | – | – | N#Cc1c(NCc2ccc(Cl)cc2)nc2ccccc2c1N1CCC(N2CCOCC2)CC1 [Compound 202CN, 2-(4-chlorobenzylamino)-3-cyano-4-[4-(morpholino)piperidin-1-yl]quinoline] | 112% | 64.2% | 96.9% | 79.2% | 65.8% | 33.5% | 83.6% | 56.1% | 66.3% | 51.9% | 80.2% | 51.1%
0.5 to 5 µM | 0.5 to 5 µM | 0.5 to 5 µM | 0.5 to 5 µM | 0.5 to 5 µM | 0.5 to 5 µM | CN1CCN(C(=O)C2CCN(c3cc(NCc4ccc(Cl)cc4)nc4ccccc34)CC2)CC1 [Compound 1656, 2-(4-chlorobenzylamino)-4-[4-(4-methylpiperazine-1-carbonyl)-piperidin-1-yl]-quinoline hydrochloride] | – | – | – | – | – | – | – | – | – | – | – | –
– | – | – | – | – | – | Cc1nccnc1OC1CCCN(c2c(C#N)c(NCc3ccc(Cl)cc3)nc3ccccc23)C1 (stereo not drawn) [Compound 3328CN, 2-(4-chlorobenzylamino)-3-cyano-4-{3-[(3-methylpyrazin-2-yl)oxy]piperidin-1-yl}quinoline] | 105% | 95.4% | 92.7% | 87.3% | 93.2% | 82.3% | 125% | 104% | 93.8% | 85.5% | 98.8% | 90.8%
– | – | – | – | – | – | COc1ccc(OC2CCN(c3c(C#N)c(NCc4ccc(Cl)cc4)nc4ccccc34)C2)cc1 (stereo not drawn) [Compound 3334CN, 2-(4-chlorobenzylamino)-3-cyano-4-[3-(4-methoxyphenoxy)pyrrolidin-1-yl]quinoline] | 105% | 96.5% | 93.2% | 90% | 92.8% | 88.6% | 89.9% | 94.4% | 93.6% | 91.2% | 97.7% | 89.1%
– | – | – | – | – | – | Cc1ccc(OC2CCN(c3c(C#N)c(NCc4ccc(Cl)cc4)nc4ccccc34)C2)cc1 (stereo not drawn) [Compound 3332CN, 2-(4-chlorobenzylamino)-3-cyano-4-[3-(4-methylphenoxy)pyrrolidin-1-yl]quinoline] | 104% | 94.1% | 108% | 103% | 101% | 87.2% | 95.3% | 58.3% | 52% | 25% | 65.6% | 62.5%
– | – | – | – | – | – | Cc1cc(Nc2nc3ccccc3c(N3CCC(NC(C)(C)C)CC3)c2C#N)ccc1Nc1nccc(-c2cccnc2)n1 [Compound 3131CN, 2-[4-(4-(pyridin-3-yl)pyrimidin-2-ylamino)-3-methylphenylamino]-3-cyano-4-(4-tert-butylaminopiperidin-1-yl)quinoline] | 80.1% | 7.3% | 79.4% | 0.1% | 63.9% | 0.1% | 87% | 69.8% | 42.6% | 0.1% | 80.6% | 0.1%
